Several values for one entry are separate records, joined by “and”; a condition that tells them apart may be missing. Identical values can stand only once.
Columns and labels:
[1] = biological target: T1, human A1 adenosine receptor (Homo sapiens, UniProt P30542); assay: Cyclic AMP accumulation assay (inhibition of forskolin-stimulated cAMP), CHO cells expressing human A1 adenosine receptor
T1 sequence (P30542 1-326): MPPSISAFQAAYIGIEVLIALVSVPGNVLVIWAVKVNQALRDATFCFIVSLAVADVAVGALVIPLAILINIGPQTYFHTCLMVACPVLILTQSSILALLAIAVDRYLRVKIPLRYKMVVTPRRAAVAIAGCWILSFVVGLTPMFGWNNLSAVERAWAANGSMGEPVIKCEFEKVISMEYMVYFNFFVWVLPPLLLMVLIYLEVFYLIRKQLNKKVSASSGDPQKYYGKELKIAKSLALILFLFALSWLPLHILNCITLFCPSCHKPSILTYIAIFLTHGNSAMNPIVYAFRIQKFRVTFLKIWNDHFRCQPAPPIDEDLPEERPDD
Protocol: (§1) The cyclic AMP accumulation assay was performed as follows. Intracellular cyclic AMP levels were measured with a competitive protein binding method. […] After centrifugation and resuspension in medium, cells were plated in 24-well plates in 1.0 ml medium. […] The reaction was terminated by removing the supernatant, and cells were lysed upon the addition of 200 μL of 0.1 M ice-cold HCl. The cell lysate was resuspended and stored at −20° C. For determination of cyclic AMP production, protein kinase A (PKA) was incubated with [^3H]cyclic AMP (2 nM) in K2HPO4/EDTA buffer (K2HPO4, 150 mM; EDTA, 10 mM), 20 μL of the cell lysate, and 30 μL 0.1 M HCl or 50 μL of cyclic AMP solution (0-16 pmol/200 μL for standard curve). Bound radioactivity was separated by rapid filtration through Whatman GF/C filters and washed once with cold buffer. Bound radioactivity was measured by liquid scintillation spectrometry.
(§2) Forskolin (10 μM) was used to stimulate cyclic AMP levels.

intact mouse heart = assay: Anti-ischemic cardioprotection, Langendorff-perfused mouse heart model of global ischemia/reperfusion; assay type: in vivo; conditions: 30 nM
Protocol: Anti-ischemic Cardioprotection. Langendorff perfusion of the mouse hearts was carried out. Mice were anesthetized with 60 mg/kg sodium pentobarbital (i.p.), and heart excised in ice-cold perfusion buffer. The aorta was cannulated and retrograde perfused in the Langendorff mode at a pressure of 55 mmHg. To assess isovolumic function, fluid-filled polyvinyl plastic film balloons were inserted into the left ventricle via the left atrium. Balloons were connected to a fluid-filled pressure transducer to measure the left ventricular developed pressure (LVDP), +dP/dt, −dP/dt, and heart rate. To induce normothermic global ischemia and reperfusion, retrograde perfusion of the aorta was stopped, and hearts were immersed in the same perfusion buffer in a water-jacketed bath maintained at 37° C. After 35-min ischemia and 30-min reperfusion, the recovery of left ventricular function was determined by quantifying the LVDP, +dP/dt, and −dP/dt. To quantify the infarct, the hearts were retrograde perfused with 1% triphenyltetrazolium chloride (TTC) in perfusion buffer for 10 minutes after 120-min reperfusion, which allowed washout of pyridine nucleotides from necrotic cells as required for TTC staining. The heart was then immersed in the same TTC buffer for another 10 minutes. The hearts were frozen, cut into six or seven 1 mm slices from apex to base, and scanned for measurement of infarct size by computer morphometry (Image-Pro Plus, version 5.0, Media Cybernetics, Inc, Silver Spring, Md.). The infarct size was quantified as the area of necrosis normalized to the total ventricular area.

[2] = biological target: T2, human A3 adenosine receptor (Homo sapiens, UniProt P0DMS8); assay: Cyclic AMP accumulation assay (inhibition of forskolin-stimulated cAMP), CHO cells expressing human A3 adenosine receptor
T2 sequence (P0DMS8 1-318): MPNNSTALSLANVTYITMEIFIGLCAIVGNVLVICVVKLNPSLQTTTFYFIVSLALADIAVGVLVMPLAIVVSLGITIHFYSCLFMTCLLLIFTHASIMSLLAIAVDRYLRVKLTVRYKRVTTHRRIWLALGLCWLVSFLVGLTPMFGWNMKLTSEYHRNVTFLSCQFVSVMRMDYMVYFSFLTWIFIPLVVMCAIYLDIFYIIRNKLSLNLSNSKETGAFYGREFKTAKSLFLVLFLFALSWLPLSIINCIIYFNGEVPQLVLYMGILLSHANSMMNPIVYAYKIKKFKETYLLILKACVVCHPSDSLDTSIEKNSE
Protocol: as §1, §2

rat A1 receptors = rat A1 receptors (Rattus norvegicus, UniProt P25099); assay: biochemical
Chain of rat A1 receptors (P25099 whole entry, the tested form may be a part): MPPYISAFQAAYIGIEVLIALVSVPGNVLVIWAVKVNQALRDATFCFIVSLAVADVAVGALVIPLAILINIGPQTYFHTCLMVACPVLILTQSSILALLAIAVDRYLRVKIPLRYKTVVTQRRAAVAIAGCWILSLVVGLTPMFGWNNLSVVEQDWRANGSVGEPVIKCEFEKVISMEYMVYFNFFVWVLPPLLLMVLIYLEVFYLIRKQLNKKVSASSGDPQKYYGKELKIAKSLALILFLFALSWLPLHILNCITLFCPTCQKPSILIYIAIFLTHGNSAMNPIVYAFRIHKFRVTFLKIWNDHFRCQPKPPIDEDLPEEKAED
Protocol: Striatal and forebrain tissues from Wistar rats were homogenized in ice-cold 50 mM Tris-HCl buffer, pH 7.4, using an electric homogenizer. The homogenate was centrifuged at 20,000 g for 10 min at 4° C., and the pellet was washed in fresh buffer. The final pellet was stored at −80° C. until the binding experiments. The protein concentration was measured using the Bradford assay.
Binding assays at the A1 and A2A receptors. […] Reaction was terminated by filtration with GF/B filters.
Statistical analysis Binding and functional parameters were calculated using Prism 5.0 software (GraphPAD, San Diego, Calif., USA). IC50 values obtained from competition curves were converted to Ki values using the Cheng-Prusoff equation.

[3] = n = 6, 35 global ischemia followed by reperfusion

CNC(=O)C12CC1C(n1cnc3c(NC4CCCC4)nc(Cl)nc31)C(O)C2O (stereo not drawn) [Compound 104, (1′S,2′R,3′S,4′S,5′S) -4′-[6-(cyclopentylamino)-2-chloro-purin-9-yl]-2′,3′-dihydroxy-bicyclo[3.1.0]hexane-1′-carboxylic acid methyl amide]
EC50 [1]: 8.2 nM | agonist character at human A1 (concentration response curves, cAMP) ([1]; intact transfected CHO cells): full agonist | recovery of left ventricular developed pressure, +dP/dt, −dP/dt and heart rate (in words) (intact mouse heart): improved significantly | Recovery of +dP/dt (intact mouse heart; [3]): 21.1 ± 4.9 % of baseline prior to ischemia/reperfusion | Recovery of HR (intact mouse heart; [3]): 93.8 ± 19.3 % of baseline prior to ischemia/reperfusion | Recovery of LVDP (intact mouse heart; [3]): 26.0 ± 4.8 % of baseline prior to ischemia/reperfusion | Recovery of −dP/dt (intact mouse heart; [3]): 24.6 ± 7 % of baseline prior to ischemia/reperfusion | % necrosis (infarct size, TTC staining) (intact mouse heart; n = 6, area of necrosis normalized to total ventricular area): 15±7% and 15.0 ± 6.9% | anti-ischemic cardioprotective effect (in words) (intact mouse heart; perfused until induction of ischemia): potent anti-ischemic cardioprotective effect | infarct size (in words) (intact mouse heart; computer morphometry after TTC staining): significantly reduced | EC50 [2]: 2.8 nM | % Activation (hA3AR) at 10 μM ([2]; 10 μM, relative to 10 μM Cl-IB-MECA): 101 ± 10% | agonist character at human A3 (concentration response curves, cAMP) ([2]; intact transfected CHO cells): full agonist | Ki (rat A1 receptors): 17.4 nM

— patent publication US7825126B2 (The United States of America as represented by the …, priority 2004, dated 2010)
